# Where two headings read alike, the source gives them in different places.
# Tested on: human Ewing's sarcoma SK-ES-1
# Type: in vivo
# Set-up: Tumor volume changes from baseline: Median (nMad): unit not given here
# Protocol: This efficacy may be quantified, for example, as changes in tumor volume for each treated (T) and control (C) group, which are calculated for each animal and each day by subtracting the tumor volume on the day of first treatment (staging day) from the tumor volume on the specified observation day. This allows calculating the tumor growth inhibition: ΔT/ΔC=(median delta T/median delta C)×100. Individual tumor volume changes from baseline are thereafter analyzed by a non-parametric two-way ANOVA-TYPE (with factors: group and repeated days) followed by a post-hoc contrasts analysis, with Bonferroni-Holm adjustment for multiplicity, comparing all treated groups to the control group. […] A probability less than 5% (p<0.05) was considered as significant.
# Based on the National Cancer Institute (NCl) standards, a ΔT/ΔC≦40% is the minimal level required to declare activity.
# The tumor doubling time (in days; Td) was estimated from the plot of the log linear growth of the control group tumors in exponential growth (100 to 1000 mm^3 range) [T. H. Corbett et al., Cancer, 40: 2660-2680 (1977); F. M. Schabel et al., Cancer Drug Development, Part B, Methods in Cancer Research, 17: 3-51, New York, Academic Press Inc. (1979)].
# This efficacy may also be quantified by the number of tumor regressions observed after therapy. Individual mice reporting a tumor volume ≦50% of the Day 0 measurement for two consecutive measurements over a seven day period were considered partial responders (PR). Individual mice lacking palpable tumors (<4×4 mm^2 for two consecutive measurements over a seven day period) were classified as complete responders (CR); a CR that persisted until study completion was considered a tumor-free survivor (TFS).
# The efficacy of cabazitaxel in comparison with docetaxel on pediatric solid tumors was determined experimentally in the following manner:
# The animals subjected to the experiment are subcutaneously grafted unilaterally with approximately 30 mg of a tumor fragment on day 0. The animals are implanted with a human tumor xenografted in immunocompromized mice. Several days post tumor implantation, mice are randomized according to their body weight to the different groups of treatments and controls. The animals are observed every day. The different animal groups are weighed daily during treatment until the maximum weight loss is reached and subsequent full weight recovery has occurred. The groups are then weighed once or twice a week until the end of the trial.
# The tumors are measured 1 to 5 times a week, depending on the tumor doubling time, until the tumor reaches approximately 1,000 mm^3, or until the animal dies (if this occurs before the tumor reaches 1,000 mm^3). The animals are necropsied immediately after euthanasia or death.
# The selected tumor model was a human Ewing's sarcoma SK-ES-1, xenografted in SCID mice [Fogh J. New York: Plenum Press, 1975].
# Cabazitaxel and docetaxel were weighed for each treatment and dissolved in ethanol. Treatment solutions were prepared first by mixing 1 volume of ethanolic stock solution and 1 volume of polysorbate 80, then by adding 18 volumes of glucose 5% in water.
# The Td in days was estimated from the plot of the log linear growth of the control group tumors in exponential growth (100 to 1,000 mm^3 range) and the number of tumor regressions observed after therapy.
# The following end points have been used: • Toxicity was declared at dosages inducing ≧20% body weight loss or ≧10% drug death; • Relative tumor growth inhibition was determined on day 22 post tumor implantation when the median tumor size in the control group was 456 mm^3; • Antitumor efficacy was determined by calculating the ΔT/ΔC value in percent, according to the above-mentioned formula; • Tumor regressions (as explained above); • Statistical analysis performed (as explained above).
# [1] = 3.5 mg/kg per injection (total 7.0) IV days 15; 19
# [2] = 3.5 mg/kg per injection (total 7.0) IV days 15; 19; listed as DOCETAXEL
# [3] = 3.5 mg/kg per injection (total 7.0) IV days 15; 19; listed as docetaxel
# [4] = 5.6 mg/kg per injection (total 11.2) IV days 15; 19
# [5] = 5.6 mg/kg per injection (total 11.2) IV days 15; 19; listed as DOCETAXEL
# [6] = 9.0 mg/kg per injection (total 18) IV days 15; 19
# [7] = 9.0 mg/kg per injection (total 18) IV days 15; 19; listed as DOCETAXEL
# [8] = 14.5 mg/kg per injection (total 29) IV days 15; 19
# [9] = 14.5 mg/kg per injection (total 29) IV days 15; 19; listed as DOCETAXEL
# [10] = 14.5 mg/kg per injection (total 29) IV days 15; 19; listed as docetaxel
smiles,measurement,setting,value
"CC(=O)O[C@@]12CO[C@@H]1C[C@H](O)[C@@]1(C)C(=O)[C@H](O)C3=C(C)[C@@H](OC(=O)[C@H](O)[C@@H](NC(=O)OC(C)(C)C)c4ccccc4)C[C@@](O)([C@@H](OC(=O)c4ccccc4)[C@H]21)C3(C)C [Docetaxel, docetaxel]",Average body weight change in % per mouse at nadir,[1],−2.1%
same,Drug death,[1],0/7
same,Regressions Complete,[1],0/7
same,Regressions Partial,[1],0/7
same,Tumor free survivors at day 120,[1],0/7
same,day of nadir,[1],16 days
same,Biological interpretation,[2],Inactive
same,ΔT/ΔC in % (day 22),[2],72%
same,Biological interpretation,[3],inactive
same,ΔT/ΔC in % (day 22),[3],> 40%
same,Tumor volume changes from baseline: Median (nMad),"3.5 mg/kg, day 19",52
same,Tumor volume changes from baseline: Median (nMad),"3.5 mg/kg, day 22",136
same,Tumor volume changes from baseline: Median (nMad),"3.5 mg/kg, day 25",712
same,Tumor volume changes from baseline: Median (nMad),"3.5 mg/kg, day 28",900
same,Tumor volume changes from baseline: Median (nMad),3.5 mg/kg; day 19,52 (89)
same,Tumor volume changes from baseline: Median (nMad),3.5 mg/kg; day 22,136
same,Tumor volume changes from baseline: Median (nMad),3.5 mg/kg; day 25,712 (29.7)
same,Tumor volume changes from baseline: Median (nMad),3.5 mg/kg; day 28,900
same,Average body weight change in % per mouse at nadir,[4],−5.4%
same,Drug death,[4],0/7
same,Regressions Complete,[4],0/7
same,Regressions Partial,[4],1/7
same,Tumor free survivors at day 120,[4],0/7
same,day of nadir,[4],16 days
same,Biological interpretation,[5],Highly Active
same,ΔT/ΔC in % (day 22),[5],<0%
same,Biological interpretation,5.6 mg/kg per injection (total 11.2) IV days 15; 19; listed as docetaxel,highly active
same,Tumor volume changes from baseline: Median (nMad),"5.6 mg/kg, day 19",0
same,Tumor volume changes from baseline: Median (nMad),"5.6 mg/kg, day 22",−36
same,Tumor volume changes from baseline: Median (nMad),"5.6 mg/kg, day 25",168
same,Tumor volume changes from baseline: Median (nMad),"5.6 mg/kg, day 28",342
same,Tumor volume changes from baseline: Median (nMad),5.6 mg/kg; day 19,0 (106.7)
same,Tumor volume changes from baseline: Median (nMad),5.6 mg/kg; day 22,−36 (60.8)
same,Tumor volume changes from baseline: Median (nMad),5.6 mg/kg; day 25,168 (80.1)
same,Tumor volume changes from baseline: Median (nMad),5.6 mg/kg; day 28,342 (89)
same,Tumor volume changes from baseline: Median (nMad),5.6 mg/kg; day 32,480
same,Tumor volume changes from baseline: Median (nMad),5.6 mg/kg; day 35,2005
same,Average body weight change in % per mouse at nadir,[6],−6.6%
same,Drug death,[6],0/7
same,Regressions Complete,[6],0/7
same,Regressions Partial,[6],6/7
same,Tumor free survivors at day 120,[6],0/7
same,day of nadir,[6],23 days
same,Biological interpretation,[7],Highly Active
same,ΔT/ΔC in % (day 22),[7],<0%
same,Biological interpretation,9.0 mg/kg per injection (total 18) IV days 15; 19; listed as docetaxel,highly active
same,Tumor volume changes from baseline: Median (nMad),"9 mg/kg, day 19",0
same,Tumor volume changes from baseline: Median (nMad),"9 mg/kg, day 22",−101
same,Tumor volume changes from baseline: Median (nMad),"9 mg/kg, day 25",−126
same,Tumor volume changes from baseline: Median (nMad),"9 mg/kg, day 28",−126
same,Tumor volume changes from baseline: Median (nMad),9 mg/kg; day 19,0 (37.1)
same,Tumor volume changes from baseline: Median (nMad),9 mg/kg; day 22,−101
same,Tumor volume changes from baseline: Median (nMad),9 mg/kg; day 25,−126
same,Tumor volume changes from baseline: Median (nMad),9 mg/kg; day 28,−126 (46)
same,Tumor volume changes from baseline: Median (nMad),9 mg/kg; day 32,−49
same,Tumor volume changes from baseline: Median (nMad),9 mg/kg; day 35,201
same,Average body weight change in % per mouse at nadir,[8],−10.5%
same,Drug death,[8],0/7
same,Regressions Complete,[8],3/7
same,Regressions Partial,[8],7/7
same,day of nadir,[8],27 days
same,Biological interpretation,[9],Highly Active
same,Tumor free survivors at day 120,[9],0/7
same,ΔT/ΔC in % (day 22),[9],<0%
same,Biological interpretation,[10],highly active
same,Tumor free survivors at day 120,[10],no TFS
same,Tumor volume changes from baseline: Median (nMad),"14.5 mg/kg, day 19",−18
same,Tumor volume changes from baseline: Median (nMad),"14.5 mg/kg, day 22",−156
same,Tumor volume changes from baseline: Median (nMad),"14.5 mg/kg, day 25",−173
same,Tumor volume changes from baseline: Median (nMad),"14.5 mg/kg, day 28",−164
same,Tumor volume changes from baseline: Median (nMad),14.5 mg/kg; day 19,−18 (77.1)
same,Tumor volume changes from baseline: Median (nMad),14.5 mg/kg; day 22,−156
same,Tumor volume changes from baseline: Median (nMad),14.5 mg/kg; day 25,−173
same,Tumor volume changes from baseline: Median (nMad),14.5 mg/kg; day 28,−164
same,Tumor volume changes from baseline: Median (nMad),14.5 mg/kg; day 32,−162
same,Tumor volume changes from baseline: Median (nMad),14.5 mg/kg; day 35,−162
same,Tumor volume changes from baseline: Median (nMad),14.5 mg/kg; day 39,290
same,Tumor volume changes from baseline: Median (nMad),14.5 mg/kg; day 41,274
same,Tumor volume changes from baseline: Median (nMad),14.5 mg/kg; day 43,427.5
same,Tumor volume changes from baseline: Median (nMad),14.5 mg/kg; day 45,574

# Reference: patent US20140350273A1, “PEDIATRIC USES OF CABAZITAXEL” (AVENTIS PHARMA S.A., priority 2012, published 2014)
